The subject of this assay is BDF1 mice, Adenocarcinoma 755 s.c., tumor weight T/C. Kind of assay: NCI In Vivo Anticancer Drug Screen. Data for tumor model Adenocarcinoma 755 (subcutaneous) in B6D2F1 (BDF1) mice. The conditions noted are these: endpoint: mean tumor weight, higher = larger tumour. A digest of the protocol:
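Tumor-bearing mice receive test compound while controls get vehicle alone. Antitumor effect is scored from survival or tumor dimensions as a T/C quotient.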

[1] abbreviates: dose: 200.0 mg/kg/injection, schedule: Q01DX011 (ip), vehicle: saline.
The mark [2] stands for this setting: dose: 25.0 mg/kg/injection, schedule: Q01DX011 (ip), vehicle: carboxymethylcellulose (CMC).

“And” between values parts separate entries of the source, which are not always exact repeats. Equal entries are not always repeated.

A word on the T/C: it is the ratio of treated to control.

For the compound `O=C(O)Cn1cccc1`, the T/C (dose: 250.0 mg/kg/injection, schedule: Q01DX011 (ip), vehicle: other) was 80 % of control; the T/C (dose: 500.0 mg/kg/injection, schedule: Q01DX011 (ip), vehicle: other) was 98 % of control; the T/C (dose: 4000.0 mg/kg/injection, schedule: Q01DX011 (ip), vehicle: other) was 70 % of control.
On to `c1ccc2cc(-c3cc4ccccc4s3)ccc2c1`, for which the T/C is, setting by setting: (dose: 100.0 mg/kg/injection, schedule: Q01DX011 (ip), vehicle: saline) 70 % of control; under setting [1], 59 % of control; (dose: 400.0 mg/kg/injection, schedule: Q01DX011 (ip), vehicle: saline) 49 % of control; (dose: 800.0 mg/kg/injection, schedule: Q01DX011 (ip), vehicle: saline) 42 % of control.
Turning to `CN1CC(=O)NC1=O`, the T/C runs as follows: (dose: 250.0 mg/kg/injection, schedule: Q01DX011 (ip), vehicle: saline) 105 % of control; (dose: 500.0 mg/kg/injection, schedule: Q01DX011 (ip), vehicle: saline) 93 % of control; (dose: 1000.0 mg/kg/injection, schedule: Q01DX011 (ip), vehicle: saline) 81 % of control.
As for `COc1cc(C(=O)[O][Hg][CH2]C2CC(O)CC([CH2][Hg][O]C(=O)c3cc(OC)c(OC)c(OC)c3)O2)cc(OC)c1OC` (configuration not stated), the T/C under setting [2] is 61 % of control.
For `Nc1ncnc2c1nc(Br)n2C1OC(CO)C(O)C1O` (configuration not stated), the T/C (dose: 30.0 mg/kg/injection, schedule: Q01DX011 (ip), vehicle: carboxymethylcellulose (CMC)) is 117 % of control and the T/C (dose: 120.0 mg/kg/injection, schedule: Q01DX011 (ip), vehicle: carboxymethylcellulose (CMC)) was 109 % of control.
On to `CC(=O)OC1CCC(C2CCCCC2)CC1` (configuration not stated), for which the T/C by setting is: (dose: 29.0 mg/kg/injection, schedule: Q01DX011 (ip), vehicle: saline) 157 % of control; (dose: 57.0 mg/kg/injection, schedule: Q01DX011 (ip), vehicle: saline) 173 % of control; (dose: 57.0 mg/kg/injection, schedule: Q01DX011 (oral), vehicle: saline) 86 % of control; (dose: 113.0 mg/kg/injection, schedule: Q01DX011 (oral), vehicle: saline) 102 % of control; (dose: 225.0 mg/kg/injection, schedule: Q01DX011 (oral), vehicle: saline) 84 % of control.
On to `CCCn1cnc2c(SCc3ccc(Br)cc3)nc(N)nc21`, for which the T/C is, setting by setting: (dose: 7.8 mg/kg/injection, schedule: Q01DX011 (ip), vehicle: methylcellulose (MC)) 58 % of control; (dose: 15.6 mg/kg/injection, schedule: Q01DX011 (ip), vehicle: methylcellulose (MC)) 57 % of control; (dose: 31.25 mg/kg/injection, schedule: Q01DX011 (ip), vehicle: methylcellulose (MC)) 20 % of control; (dose: 62.5 mg/kg/injection, schedule: Q01DX011 (ip), vehicle: methylcellulose (MC)) 21 % of control and 23 % of control.
With `N#[N+]c1cn(C2CC(O)C(CO)O2)c(=O)[nH]c1=O` (configuration not stated), the T/C reads like this: (dose: 30.0 mg/kg/injection, schedule: Q01DX011 (ip), vehicle: saline) 106 % of control; (dose: 60.0 mg/kg/injection, schedule: Q01DX011 (ip), vehicle: saline) 118 % of control; (dose: 120.0 mg/kg/injection, schedule: Q01DX011 (ip), vehicle: saline) 94 % of control; (dose: 240.0 mg/kg/injection, schedule: Q01DX011 (ip), vehicle: saline) 47 % of control.
In the case of `Cn1c(N)c(N=O)c(=O)n(C)c1=O`, the T/C runs as follows: (dose: 175.0 mg/kg/injection, schedule: Q01DX011 (oral), vehicle: other) 99 % of control; (dose: 250.0 mg/kg/injection, schedule: Q01DX011 (ip), vehicle: carboxymethylcellulose (CMC)) 81 % of control; (dose: 350.0 mg/kg/injection, schedule: Q01DX011 (ip), vehicle: carboxymethylcellulose (CMC)) 28 % of control; (dose: 350.0 mg/kg/injection, schedule: Q01DX011 (oral), vehicle: other) 80 % of control; (dose: 1400.0 mg/kg/injection, schedule: Q01DX011 (oral), vehicle: methylcellulose (MC)) 105 % of control; (dose: 2000.0 mg/kg/injection, schedule: Q01DX011 (oral), vehicle: other) 74 % of control. In addition, the T/C (dose: 2800.0 mg/kg/injection, schedule: Q01DX011 (oral), vehicle: other) was 118 % of control.
With `O=S(=O)(F)c1nc(Cl)c2[nH]cnc2n1`, the T/C (dose: 6.2 mg/kg/injection, schedule: Q01DX011 (ip), vehicle: methylcellulose (MC)) was 117 % of control.
As for `Cn1c(=O)c2[nH]c(CCl)nc2n(C)c1=O`, the T/C (dose: 25.0 mg/kg/injection, schedule: Q01DX011 (ip), vehicle: methylcellulose (MC)) is 86 % of control.
Regarding `c1ccc2c3c(ccc2c1)Sc1ccc2ccccc2c1N3`, the T/C is 73 % of control (dose: 27.5 mg/kg/injection, schedule: Q01DX011 (ip), vehicle: methylcellulose (MC)); 108 % of control (dose: 27.5 mg/kg/injection, schedule: Q01DX011 (ip), vehicle: other); 76 % of control (dose: 55.0 mg/kg/injection, schedule: Q01DX011 (ip), vehicle: methylcellulose (MC)); 115 % of control (dose: 55.0 mg/kg/injection, schedule: Q01DX011 (ip), vehicle: other); 58 % of control (dose: 110.0 mg/kg/injection, schedule: Q01DX011 (ip), vehicle: methylcellulose (MC)); 64 % of control (dose: 440.0 mg/kg/injection, schedule: Q01DX011 (ip), vehicle: other).
For the compound `CN(C)c1nc(N)nc(Nc2ccc(Br)cc2)c1N=O`, the T/C (dose: 12.5 mg/kg/injection, schedule: Q01DX011 (ip), vehicle: carboxymethylcellulose (CMC)) was 40 % of control and the T/C under setting [2] is 51 % of control.
For `Cc1ccccc1Nc1cc(Cl)nc(N)n1`, the T/C (dose: 15.0 mg/kg/injection, schedule: Q01DX011 (ip), vehicle: methylcellulose (MC)) was 73 % of control; the T/C (dose: 31.0 mg/kg/injection, schedule: Q01DX011 (ip), vehicle: methylcellulose (MC)) is 85 % of control; the T/C (dose: 62.0 mg/kg/injection, schedule: Q01DX011 (ip), vehicle: methylcellulose (MC)) was 75 % of control; the T/C (dose: 125.0 mg/kg/injection, schedule: Q01DX011 (ip), vehicle: methylcellulose (MC)) was 120 % of control; the T/C (dose: 250.0 mg/kg/injection, schedule: Q01DX011 (ip), vehicle: methylcellulose (MC)) is 93 % of control.
Regarding `CN(C)S(=O)(=O)c1ncnc2nc[nH]c12`, the T/C (dose: 32.0 mg/kg/injection, schedule: Q01DX011 (ip), vehicle: other) is 26 % of control; the T/C (dose: 128.0 mg/kg/injection, schedule: Q01DX011 (ip), vehicle: other) is 7 % of control; the T/C (dose: 256.0 mg/kg/injection, schedule: Q01DX011 (ip), vehicle: other) is 6 % of control.
Turning to `CN(C)C1C(=O)C(C(=O)NCNC(CCS(C)=O)C(=O)O)=C(O)C2(O)C(=O)C3=C(O)c4c(O)cccc4C(C)(O)C3CC12` (configuration not stated), the T/C under setting [1] was 68 % of control.

The values above are taken from PubChem BioAssay AID180 (DTP/NCI, 2004).
